Experiments:
[1] = system: human basophils; assay: IL-3 dependent IL-13 secretion by human basophils; assay type: cell-based; settings: for inhibition of IL-13 induced by IL-3: 18-20 h culture, FIG. 18A
[2] = system: human basophils; assay: IgE-dependent IL-4 secretion by human basophils; assay type: cell-based
Procedure: (§1) Studies investigating the effect of the TBDMS-cGpGp analog on IgE-dependent IL-4 and histamine secretion induced by cross-linking were then performed. […] The inhibition of IL-4 was evident using the TBDMS-cGpGp analog as well as the cGpAp analog. Note that IgE-mediated histamine release is 90% complete within 20 minutes after stimulation- histamine is preformed and store in cytoplasmic granules. Although IL-4 is not preformed, it is rapidly generated denovo and secreted within 3-6 hours. In performing these experiments, a standard protocol for testing various anti-allergic drugs was used.
(§2) Specifically, the basophils were pretreated 15 minutes with the analogs before adding anti-IgE antibody for activation. Culture supernatants were analyzed for histamine and IL-4 three hours later. Thus, unlike the IL-13 induced by IL-3 during an 18-20 h culture, the release of histamine and IL-4 are far more rapid under IgE crosslinking conditions. It may be that inhibition would be greater if a greater pre-incubation time was performed with the analogs. Additional experiments will test different pre-incubation times to determine whether greater inhibition is observed. It is important to note that neither analog induced histamine release or IL-4 when used alone at the 50 uM concentration. T this is additional evidence that the inhibitory effect in not due to toxicity- histamine would most likely be released if the analogs were causing cell lysis.
IL-4 measurements were made in an experiment where the cyclic dinucleotide analogs were tested in a 1 hour pretreatment of basophils before activating with anti-IgE antibody. The control release to anti-IgE antibody was 262 pg/106 basophils (a relatively robust response being that cell responsiveness decreases the longer the wait before activating). Both the TBMDS-cGpGp and cGpAp analogs produced ˜30% inhibition at the 50μM concentration. […] It may be that overnight incubation with cyclic dinucleotide (similar to the IL-13 inhibition studies) would show even greater inhibition.

[3] = Solubility
[4] = assay type: in vitro ADME, human
Procedure: Commercially supplied pooled human serum (100 uL) (Cambrex Bio Science Walkersville, Inc.) was diluted in ion-exchanged water. An aliquot of the resulting human serum solution was subjected to HPLC analysis (conditions: COSMOSIL 5C18-AR-II column (4.6×200 mm); buffer A; buffer B, 80% acetonitrile in water; gradient, 0-10 min A 100%, 10-60 min A:B=100:0 to A:B=40:60 in 50 min; detection 254 nm, flow rate, 1.0 mL/min, temperature 40° C.). Separately, a 100 uM of c-di-GMP solution in human serum was prepared by adding 100 uL of a 500 uM c-di-GMP aqueous solution to a mixture of 390 uL of human serum and 10 uL of 40 mM 2-methylbenzimidazole (an internal standard for estimating the extent of decomposition of c-di-GMP) in methanol. An aliquot of the test solution was diluted immediately after the preparation solution and then heated at 100° C. for 5 min to quench activity of enzymes. The resulting test sample was subjected to HPLC analysis after 24 h treatment. Peaks that appeared in both analyses were compared. Results are based on 3 independent experiments.

[5] = system: lung leukocytes; assay: Lung leukocyte accumulation in Klebsiella-infected mice (lung digest, flow cytometry); assay type: in vivo, Balb/c mice
[6] = system: Primary hippocampal cells; assay: Staurosporine-induced cell death in primary hippocampal cultures (CellTiter 96 AQueous Assay); assay type: cell-based; settings: 100 nM, 22 h
Procedure: To assess the role of cyclic dinucleotides in modulating the neurological response, i.e., prevent cell death induced by staurosporine (STS) in primary hippocampal nerve cells, the effects of c-di-GMP on hippocampal cells was analyzed. Primary hippocampal cells were prepared according to previously described methods (Pereira et al., 1993). Briefly, the hippocampi were dissected from the brain of 18-day-old fetal rats. Following enzymatic and mechanical dissociation, cells were plated at a density of 100,000 cells/well in 96-well plates pre-coated with matrigel. At the 7th day after plating, cultures were subjected to one of the following treatments: (i) vehicle (24 h), (ii) STS (100 nM, 22 h), (iii) c-di-GMP (24 h), (iv) c-di-GMP (2 h) followed by c-di-GMP -plus-STS (22 h), (v) c-di-GMP -plus-STS (24 h), or (vi) STS (2 h) followed by c-di-GMP -plus-STS (22 h). At the end of the treatments, cell viability was analyzed using CellTiter 96® AQueous Assay (Promega). The assay involves the spectrophotometric measurement (at 490 nm) of the mitochondrial conversion of a tetrazolium dye into a colorful product. The absorbance of the assay correlates with the number of metabolically active cells.

[7] = system: pDC; assay: Cytokine secretion by pDC treated with TBDMS analog; assay type: cell-based, human
Procedure: Whether or not TBDMS would directly induce (or affect CpG-dependent) cytokine (IL-6, TNF-alpha, IL-10) secretion was then tested. […] IL-6 was not measured. […] Cells from one of the 3 subjects did secrete 100-200 pg/10^6 cells more TNF-alpha than the ˜400 secreted in medium alone. The same pattern was seen using these cells when the combination of CpG and TMDMS was used. However, these effects were not evident for the other two pDC preparations.

[8] = system: basophils; assay: SOCS expression in basophils (real-time PCR); assay type: cell-based, human
Procedure: Whether or not cyclic dinucleotides affected induction of SOCS (Suppresser Of Cytokine Synthesis) expression in basophils treated with CDN's was then tested. […] Cells were treated for 18 h, total RNA isolated, and RT-PCR performed for SOCS-1, SOCS-3, and the HPRT housekeeping gene. The fact that cGpGp also induces SOCS-1 may explain why some inhibition of IL-3-induced IL-13 secretion is observed with this cyclic dinucleotide analog. […] In the current IL-13 assay, the cyclic dinucleotide is added simultaneously with IL-3. The TBDMS-cGpGp likely induces SOCS-1 expression faster and thus accounts for greater inhibition of IL-13. […] While modest inhibitory activity with cGpGp was observed, evidence that cGpGp induces SOCS-1 and sometimes better than TBDMS-cGpGp at this particular time point was observed. These differences might be explained by kinetics and it may be that SOCS gene expression would be higher following TBDMS-cGpGp treatment when examined at an earlier time point.

[9] = system: human basophils; assay: IgE-dependent histamine release by human basophils; assay type: cell-based; settings: 15 minutes pretreatment
Procedure: as §1
as §2, with “T this is additional evidence that the inhibitory effect in not due to toxicity- histamine would most likely be released if the analogs were causing cell lysis.” left out

[10] = 50 uM, 15 minutes pretreatment, supernatants three hours later, FIG. 18B
[11] = 50μM, 1 hour pretreatment, control release 262 pg/106 basophils

## Nc1nc2c(ncn2[C@@H]2O[C@@H]3COP(=O)(O)O[C@H]4[C@@H](O)[C@H](n5cnc6c(N)ncnc65)O[C@@H]4COP(=O)(O)O[C@H]3[C@H]2O)c(=O)[nH]1 [cGpAp]
[1]; under the conditions tested
  effect on IL-13 induced by IL-3: little effect
[2]; [10]
  inhibition of IgE-dependent IL-4: evident
[2]; [11]
  inhibition of IgE-dependent IL-4: ~30%

## Cc1nc2ccccc2[nH]1 [2-methylbenzimidazole, reference compound]
[3]
  solubility in water, methanol, and acetonitrile: fairly soluble
[4]
  stability in human serum: stable

## Nc1nc2c(ncn2[C@@H]2O[C@@H]3COP(=O)(O)O[C@H]4[C@@H](O)[C@H](n5cnc6c(=O)[nH]cnc65)O[C@@H]4COP(=O)(O)O[C@H]3[C@H]2O)c(=O)[nH]1 [cGpIp]
[1]; two experiments
  enhancement of IL-13 induced by IL-3: 25%

## Nc1nc2c(ncn2[C@@H]2O[C@@H]3COP(=O)(O)O[C@H]3[C@H]2O)c(=O)[nH]1 [CTL, reference compound]
[5]; i.n. pretreatment 48 and 24 hr prior, lung digests 48 hrs after K. pneumoniae (kp), uninfected 2.7 × 10^7
  Total number lung cells: 3.57 × 10^7
[5]; lung digests 48 hrs after kp, uninfected 0.33 × 10^5
  αβTcr^+, CD69^+: 2.7 × 10^5
[5]; lung digests 48 hrs after kp, uninfected 0.78 × 10^5
  DX5^+, CD69^+: 2.7 × 10^5
[5]; lung digests 48 hrs after kp, uninfected 0.8 × 10^6
  PMN: 7.35 × 10^6
[5]; lung digests 48 hrs after kp, uninfected 1.3 × 10^6
  DX5^+ (NK): 2.5 × 10^6
[5]; lung digests 48 hrs after kp, uninfected 1.6 × 10^5
  DX5^+, αβγδTcr^+(NK T^+): 4.7 × 10^5
[5]; lung digests 48 hrs after kp, uninfected 2.3 × 10^7
  Mono/Macrophage: 2.88 × 10^7
[5]; lung digests 48 hrs after kp, uninfected 2.6 × 10^6
  αβTcr^+: 3.38 × 10^6

## CN[C@@H]1C[C@H]2O[C@@](C)([C@@H]1OC)n1c3ccccc3c3c4c(c5c6ccccc6n2c5c31)C(=O)NC4 [STS, staurosporine, reference compound]
[6]
  cell death in primary hippocampal cultures: caused significant cell death

## CC(C)(C)[Si](C)(C)O[C@@H]1[C@@H]2OP(=O)(O)OC[C@H]3O[C@@H](n4cnc5c(=O)[nH]c(N)nc54)[C@H](O)[C@@H]3OP(=O)(O)OC[C@H]2O[C@H]1n1cnc2c(=O)[nH]c(N)nc21 [TBDMS-cGpGp, 2′-O-TBDMS-c-di-GMP]
[1]; 10 micromolar
  inhibition of IL-13 induced by IL-3: 30-40%
[1]; 50 micromolar, at least 5 independent experiments
  inhibition of IL-13 induced by IL-3: 70-80%
[2]; [10]
  inhibition of IgE-dependent IL-4: 30%
[2]; [11]
  inhibition of IgE-dependent IL-4: ~30%
[7]; alone or with CpG
  effect on TNF-alpha and IL-10: little to no effect
[7]; cells from one of the 3 subjects
  TNF-alpha secreted above the ˜400 in medium alone: 100-200 pg/10^6 cells
[7]; used by itself, n=3
  IL-10 secretion: did not cause IL-10 secretion
[8]
  time of SOCS mRNA peak: ~12 h
[8]; 18 h treatment
  SOC-3 mRNA: induced
  SOCS-1 mRNA: induced
[9]
  effect on IgE-dependent histamine release: essentially no effect

From patent US7592326B2, “Method for stimulating the immune, inflammatory or neuroprotective response” (priority 2004, dated 2009)
